From patent US8217035B2, “Pyrimidine derivatives used as PI-3-kinase inhibitors” (Novartis AG, priority 2006, dated 2012)

The compounds below were run on Akt^Ser473 phosphorylation in A2780 xenograft tumors (assay: In vivo target modulation (PK/PD) in A2780 ovarian cancer xenograft tumors (Biological Method 3)). Conditions: 60 mg/kg, A2780 tumors.
Design: species or system nu/nu mice
Text: (§1) A2780 ovarian cancer cells obtained from George Coukos (Fox Chase Cancer Center, University of Pennsylvania, Philadelphia, Pa.) were maintained in DMEM (Invitrogen, Inc.) supplemented with 10% heat-inactivated fetal bovine serum with 1% glutamine. Cells were propagated as recommended by the Dr. Coukos and colleagues. Female nu/nu mice (8-12 weeks old, 20-25 g, Charles River) were used for all in vivo pharmacology studies. The mice were housed and maintained in accordance with state and federal guidelines for the humane treatment and care of laboratory animals and received food and water ad libitum. Cancer cells were harvested from mid-log phase cultures using trypsin-EDTA (Invitrogen, Inc.). Five million cells were subcutaneously injected into the right flank of each mouse. Compound treatment was initiated when tumor size reached to 300-400 mm^3 for PK/PD studies and 200-300 mm^3 for efficacy studies. All compound treatment was administrated orally. Tumor volumes were determined by using StudyDirector software.
For PK/PD dose-dependent studies, tumor-bearing mice were given a single oral dose of compound at different concentrations (10, 30, 60 and 100 mg/kg or vehicle) and tumors were resected at 10 hr or 24 hr after dosing. Blood samples were taken by cardiac puncture using a syringe primed with heparin sulfate. Resected tumors were snap frozen on dry ice and pulverized using a liquid nitrogen-cooled cryomortar and pestle, and lysed in cold cell extraction buffer (Biosource) containing protease inhibitor tablet (Complete; EDTA-free, Amersham). Supernatants were taken after centrifugation of tumor lysates at 300×g for 10 min at 4° C. and the protein concentration in each supernatant was determined by BCA (BioRad). An equal amount of protein from each tumor lysate was loaded onto 10% Tris-glycine gels (Invitrogen), for sodiumdoceylsulfate-polyacrylamide gel electrophoresis (SDS-PAGE) after which proteins were transferred from the gel onto PVDF membrane. Membranes were probed with antibodies that recognize phosphoAkt^Ser473 or phosphoAkt^Thr308 (Cell Signaling) followed by secondary goat anti-rabbit IgG conjugated to HRP(Amersham). Positive bands were visualized by enhanced chemiluminescence with X-ray film. Similar procedures were used to determine total AKT in the same tumor lysates to serve as normalization for total protein in each determination. The density of the positive band on the X-ray film was scanned and the target modulation for each compound was expressed as percentage inhibition by each compound compared to vehicle treatment.
(§2) For efficacy studies, A2780 cancer cells (5×10^6 in 100 μl of DMEM culture medium) were injected subcutaneously into the right flank of each nu/nu mouse. […] Tumor growth and animal body weight was measured twice weekly with daily clinical observation to monitor potential toxicities related to the treatment. […] Activation of the PI3K signaling pathway results in the phosphorylation of the downstream signaling molecule Akt at Ser^473 and/or Thr^308. Compound modulation of Akt^Ser473 phosphorylation was examined in A2780 xenograft tumors at time points ranging from 30 min to 36 hr after a single compound dose at 60 or 100 mg/kg.
With `COc1ccc(Nc2cc(-c3cnc(N)nc3)nc(N3CCOCC3)n2)cn1` [Compound 91] the “Duration of target modulation (50% inhibition)” value was 8 h.

Same assay, conditions: Mus musculus, A2780; 30 mg/kg oral b.i.d.; read-out: Target inhibition in A2780 tumors, sustained over the whole dosing period
`Nc1cc(C(F)(F)F)c(-c2cc(N3CCOCC3)nc(N3CCOCC3)n2)cn1` [Compound 10] was tested, and the inhibition at 30 mg/kg was < 75%.

Same assay, conditions: Mus musculus; 60 mg/kg single oral dose, 10 hr, A2780 xenograft tumors; read-out: Modulation of Akt^Ser473 phosphorylation (percentage inhibition compared to vehicle)
`Nc1ncc(-c2cc(OC3CCOCC3)nc(N3CCOCC3)n2)c(N)n1` [Compound 84] gave an inhibition at 60 mg/kg of 50 to 75%. With `Nc1ncc(-c2cc(OC3CCOCC3)nc(N3CCOCC3)n2)c(C(F)(F)F)n1` [Compound 66] the inhibition at 60 mg/kg was < 50%. For `Nc1cc(C(F)(F)F)c(-c2cc(N3CCOCC3)nc(N3CCOCC3)n2)cn1` [Compound 10], the inhibition at 60 mg/kg was > 75%.

Same assay, conditions: Mus musculus; 100 mg/kg single oral dose, 8 hr, A2780 xenograft tumors; read-out: Modulation of Akt^Ser473 phosphorylation (percentage inhibition compared to vehicle)
For `Nc1ccc(-c2cc(Nc3cnc4ccccc4c3)nc(N3CCOCC3)n2)cn1` [Compound 183], the inhibition at 100 mg/kg was 50 to 75%. For `Cc1c(Nc2cnc3ccccc3c2)nc(N2CCOCC2)nc1-c1cnc(N)nc1` [Compound 103], the inhibition at 100 mg/kg was < 50%. `COc1ccc(Nc2cc(-c3cnc(N)nc3)nc(N3CCOCC3)n2)cn1` [Compound 91] was tested, and the inhibition at 100 mg/kg was > 50%.

Same assay, conditions: Mus musculus; 100 mg/kg single oral dose, 10 hr, A2780 xenograft tumors; read-out: Modulation of Akt^Ser473 phosphorylation (percentage inhibition compared to vehicle)
In the case of `Nc1cc(C(F)(F)F)c(-c2cc(N3CCOCC3)nc(N3CCOCC3)n2)cn1` [Compound 10], the inhibition at 100 mg/kg is reported as > 75%.

What follows are compounds tested on A2780 tumor xenograft (assay: Efficacy study in A2780 ovarian cancer xenograft model (Biological Method 3)). Conditions: 10 mg/kg oral twice daily, A2780 tumors (FIG. 1).
Format: in vivo, nu/nu mice
Text: as §1, §2
With `COc1ccc(Nc2cc(-c3cnc(N)nc3)nc(N3CCOCC3)n2)cn1` [Compound 91] the Tumor growth inhibition was “no inhibitory activity”.

Same assay, conditions: 30 mg/kg oral b.i.d., A2780 model (FIG. 5)
For `Nc1cc(C(F)(F)F)c(-c2cc(N3CCOCC3)nc(N3CCOCC3)n2)cn1` [Compound 10], the Antitumor activity was “significant antitumor activity”.

Same assay, conditions: 30 mg/kg oral daily, A2780 model
Work on `Nc1cc(C(F)(F)F)c(-c2cc(N3CCOCC3)nc(N3CCOCC3)n2)cn1` [Compound 10] yielded a Tumor growth inhibition of 40%.

Same assay, conditions: 60 mg/kg oral daily, A2780 model
With `Nc1ncc(-c2cc(OC3CCOCC3)nc(N3CCOCC3)n2)c(N)n1` [Compound 84] the Tumor growth inhibition was < 50%. `Nc1cc(C(F)(F)F)c(-c2cc(N3CCOCC3)nc(N3CCOCC3)n2)cn1` [Compound 10] gave a Tumor growth inhibition of 70%.

Same assay, conditions: 60 mg/kg oral twice daily, A2780 tumors (FIG. 1)
In the case of `COc1ccc(Nc2cc(-c3cnc(N)nc3)nc(N3CCOCC3)n2)cn1` [Compound 91], the Tumor growth inhibition is reported as 50%.

Same assay, conditions: 100 mg/kg oral daily, A2780 model (FIG. 2)
In the case of `Nc1cc(C(F)(F)F)c(-c2cc(N3CCOCC3)nc(N3CCOCC3)n2)cn1` [Compound 10], the Tumor growth inhibition is reported as “tumor growth stasis”.

What follows are compounds tested on pSer473 Akt in A2780 cells (assay: pSer473 Akt assay to monitor PI3K pathway in A2780 cells (Biological Method 2, MSD)). Conditions: Homo sapiens; inhibition of Akt phosphorylation, A2780 cells.
Format: cell-based
Outline: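 A2780 ovarian cancer cells in DMEM/10% FBS were treated with compound for 1 h at 37 °C, then lysed. pSer473-Akt and total Akt were measured by MSD electrochemiluminescence immunoassay. The pSer473/total Akt ratio gave % inhibition versus DMSO, from which EC50 was derived.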
In the case of `Nc1ncc(-c2cc(OC3CCOCC3)nc(N3CCOCC3)n2)c(N)n1` [Compound 84], the EC50 is reported as < 1 µM. For `Nc1ccc(-c2cc(Nc3cnc4ccccc4c3)nc(N3CCOCC3)n2)cn1` [Compound 183], the EC50 was < 1 µM. With `Cc1c(Nc2cnc3ccccc3c2)nc(N2CCOCC2)nc1-c1cnc(N)nc1` [Compound 103] the EC50 was < 1 µM. For `Nc1ncc(-c2cc(OC3CCOCC3)nc(N3CCOCC3)n2)c(C(F)(F)F)n1` [Compound 66], the EC50 was < 1 µM. `Nc1cc(C(F)(F)F)c(-c2cc(N3CCOCC3)nc(N3CCOCC3)n2)cn1` [Compound 10] was tested, and the EC50 was < 1 µM. With `COc1ccc(Nc2cc(-c3cnc(N)nc3)nc(N3CCOCC3)n2)cn1` [Compound 91] the EC50 was < 1 µM. With `COc1cccc2ncc(Nc3cc(-c4cnc(N)nc4)nc(N4CCOCC4)n3)cc12` [Compound 7] the EC50 was < 1 µM. In the case of `Cc1cc(Nc2cc(-c3cnc(N)nc3C(F)(F)F)nc(N3CCOCC3)n2)ccn1` [Compound 52], the EC50 is reported as < 1 µM. `Nc1ncc(-c2cc(O[C@H]3CCOC3)nc(N3CCOCC3)n2)c(=O)[nH]1` [Compound 39] was tested, and the EC50 was < 1 µM. In the case of `Nc1ncc(-c2cc(Nc3ccncc3)nc(N3CCOCC3)n2)c(C(F)(F)F)n1` [Compound 33], the EC50 is reported as < 1 µM. In the case of `CCN(CC)Cc1cnc(Nc2cc(-c3cnc(N)cc3C(F)(F)F)nc(N3CCOCC3)n2)s1` [Compound 12], the EC50 is reported as < 1 µM. For `NC(=O)c1cccc(Nc2cc(-c3ccc(N)nc3)nc(N3CCOCC3)n2)c1` [Compound 166], the EC50 was < 1 µM.

The compounds below were run on A2780 ovarian cancer cells (assay: Cellular proliferation in A2780 cells, Cell Titer Glo (Biological Method 4)). Conditions: Homo sapiens; ovarian cancer cell line A2780.
Format: cell-based
Outline: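 Viability after 72 h compound exposure (37 °C, 5% CO2) was read by Cell Titer Glo and an EC50 derived, each condition in duplicate. A2780 ovarian cells had been plated at 1,000 per well in DMEM/10% FBS at least 2 h beforehand.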
`Nc1ncc(-c2cc(OC3CCOCC3)nc(N3CCOCC3)n2)c(N)n1` [Compound 84] was tested, and the EC50 was < 1 µM. `Nc1ccc(-c2cc(Nc3cnc4ccccc4c3)nc(N3CCOCC3)n2)cn1` [Compound 183] was tested, and the EC50 was < 1 µM. For `Cc1c(Nc2cnc3ccccc3c2)nc(N2CCOCC2)nc1-c1cnc(N)nc1` [Compound 103], the EC50 was < 1 µM. With `Nc1ncc(-c2cc(OC3CCOCC3)nc(N3CCOCC3)n2)c(C(F)(F)F)n1` [Compound 66] the EC50 was < 10 µM. For `Nc1cc(C(F)(F)F)c(-c2cc(N3CCOCC3)nc(N3CCOCC3)n2)cn1` [Compound 10], the EC50 was < 1 µM. With `COc1ccc(Nc2cc(-c3cnc(N)nc3)nc(N3CCOCC3)n2)cn1` [Compound 91] the EC50 was < 1 µM. `COc1cccc2ncc(Nc3cc(-c4cnc(N)nc4)nc(N4CCOCC4)n3)cc12` [Compound 7] was tested, and the EC50 was < 1 µM. `Cc1cc(Nc2cc(-c3cnc(N)nc3C(F)(F)F)nc(N3CCOCC3)n2)ccn1` [Compound 52] was tested, and the EC50 was < 1 µM. `Nc1ncc(-c2cc(O[C@H]3CCOC3)nc(N3CCOCC3)n2)c(=O)[nH]1` [Compound 39] was tested, and the EC50 was < 1 µM. With `Nc1ncc(-c2cc(Nc3ccncc3)nc(N3CCOCC3)n2)c(C(F)(F)F)n1` [Compound 33] the EC50 was < 1 µM. In the case of `CCN(CC)Cc1cnc(Nc2cc(-c3cnc(N)cc3C(F)(F)F)nc(N3CCOCC3)n2)s1` [Compound 12], the EC50 is reported as < 10 µM. `NC(=O)c1cccc(Nc2cc(-c3ccc(N)nc3)nc(N3CCOCC3)n2)c1` [Compound 166] was tested, and the EC50 was < 10 µM.

The compounds below were run against PI3 kinase alpha (Homo sapiens, UniProt P42336) (assay: PI3K ATP depletion assay (Biological Method 1, Assay 3; KinaseGlo luminescence)). Conditions: ATP depletion assay; read-out: PI3 Kinase Alpha, IC50.
Chain of PI3 kinase alpha (P42336 whole entry): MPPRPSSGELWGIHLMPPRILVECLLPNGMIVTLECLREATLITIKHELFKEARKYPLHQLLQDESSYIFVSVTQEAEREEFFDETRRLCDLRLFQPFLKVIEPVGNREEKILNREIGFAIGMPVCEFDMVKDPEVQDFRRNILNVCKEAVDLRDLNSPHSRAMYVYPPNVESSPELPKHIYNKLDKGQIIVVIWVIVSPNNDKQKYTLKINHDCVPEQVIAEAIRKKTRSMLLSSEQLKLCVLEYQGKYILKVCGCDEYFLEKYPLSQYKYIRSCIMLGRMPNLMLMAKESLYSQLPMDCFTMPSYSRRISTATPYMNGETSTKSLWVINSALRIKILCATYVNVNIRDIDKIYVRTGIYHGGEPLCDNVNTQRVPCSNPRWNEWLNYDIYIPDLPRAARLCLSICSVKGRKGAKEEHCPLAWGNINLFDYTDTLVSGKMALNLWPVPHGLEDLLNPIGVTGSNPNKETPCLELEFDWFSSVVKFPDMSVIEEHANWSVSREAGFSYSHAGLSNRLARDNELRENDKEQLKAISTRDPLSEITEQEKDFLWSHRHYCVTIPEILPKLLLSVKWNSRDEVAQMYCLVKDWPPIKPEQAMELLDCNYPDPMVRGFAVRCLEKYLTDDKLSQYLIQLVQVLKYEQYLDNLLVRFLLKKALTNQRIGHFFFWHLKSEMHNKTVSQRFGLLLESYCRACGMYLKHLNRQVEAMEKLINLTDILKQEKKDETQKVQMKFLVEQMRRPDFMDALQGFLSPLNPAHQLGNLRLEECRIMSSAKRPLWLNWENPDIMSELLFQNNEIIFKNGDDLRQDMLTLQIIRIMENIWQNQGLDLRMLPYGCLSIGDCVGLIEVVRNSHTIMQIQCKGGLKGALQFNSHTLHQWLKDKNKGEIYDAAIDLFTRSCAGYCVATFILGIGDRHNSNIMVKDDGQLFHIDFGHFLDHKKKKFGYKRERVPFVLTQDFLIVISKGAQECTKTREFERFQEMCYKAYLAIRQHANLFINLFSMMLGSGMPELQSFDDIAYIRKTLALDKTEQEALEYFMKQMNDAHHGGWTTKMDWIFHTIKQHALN
Chain of PI3 kinase alpha (P27986 whole entry partner): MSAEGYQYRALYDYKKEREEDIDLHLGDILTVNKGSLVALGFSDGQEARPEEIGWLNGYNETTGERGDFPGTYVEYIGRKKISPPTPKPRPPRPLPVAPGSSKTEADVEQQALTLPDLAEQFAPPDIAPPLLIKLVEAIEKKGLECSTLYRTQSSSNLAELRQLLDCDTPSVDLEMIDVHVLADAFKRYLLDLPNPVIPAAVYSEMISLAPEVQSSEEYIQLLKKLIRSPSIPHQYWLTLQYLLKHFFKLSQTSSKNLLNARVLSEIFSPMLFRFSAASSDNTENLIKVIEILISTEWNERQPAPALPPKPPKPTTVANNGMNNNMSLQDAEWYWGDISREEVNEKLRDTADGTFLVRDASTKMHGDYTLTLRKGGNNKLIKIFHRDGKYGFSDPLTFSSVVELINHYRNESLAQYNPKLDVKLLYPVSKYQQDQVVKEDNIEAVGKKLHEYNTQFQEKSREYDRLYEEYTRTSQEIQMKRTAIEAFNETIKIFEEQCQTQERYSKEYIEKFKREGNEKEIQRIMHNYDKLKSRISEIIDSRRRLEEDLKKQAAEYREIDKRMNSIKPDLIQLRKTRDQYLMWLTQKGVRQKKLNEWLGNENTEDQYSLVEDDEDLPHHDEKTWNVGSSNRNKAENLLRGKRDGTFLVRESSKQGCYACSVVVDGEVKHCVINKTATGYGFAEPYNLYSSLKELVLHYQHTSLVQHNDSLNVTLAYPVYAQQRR
Format: biochemical
Outline: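 Compound in DMSO was mixed with 10 nM PI3 kinase and 5 μg/mL phosphatidylinositol, and the reaction was started with 2 μM ATP. It ran to about 50% ATP depletion and was stopped with KinaseGlo.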
In the case of `Nc1ncc(-c2cc(OC3CCOCC3)nc(N3CCOCC3)n2)c(N)n1` [Compound 84], the IC50 is reported as < 1 µM. For `Cc1c(Nc2cnc3ccccc3c2)nc(N2CCOCC2)nc1-c1cnc(N)nc1` [Compound 103], the IC50 was < 1 µM. In the case of `Nc1ncc(-c2cc(OC3CCOCC3)nc(N3CCOCC3)n2)c(C(F)(F)F)n1` [Compound 66], the IC50 is reported as < 1 µM. In the case of `COc1cccc2ncc(Nc3cc(-c4cnc(N)nc4)nc(N4CCOCC4)n3)cc12` [Compound 7], the IC50 is reported as < 1 µM. With `Cc1cc(Nc2cc(-c3cnc(N)nc3C(F)(F)F)nc(N3CCOCC3)n2)ccn1` [Compound 52] the IC50 was < 1 µM. In the case of `Nc1ncc(-c2cc(O[C@H]3CCOC3)nc(N3CCOCC3)n2)c(=O)[nH]1` [Compound 39], the IC50 is reported as < 1 µM. In the case of `Nc1ncc(-c2cc(Nc3ccncc3)nc(N3CCOCC3)n2)c(C(F)(F)F)n1` [Compound 33], the IC50 is reported as < 1 µM. With `CCN(CC)Cc1cnc(Nc2cc(-c3cnc(N)cc3C(F)(F)F)nc(N3CCOCC3)n2)s1` [Compound 12] the IC50 was < 1 µM. With `NC(=O)c1cccc(Nc2cc(-c3ccc(N)nc3)nc(N3CCOCC3)n2)c1` [Compound 166] the IC50 was < 1 µM.
